Results taken from the NIST ThermoML archive (doi:10.1021/je050202g).
± gives the expanded uncertainty stated by the source.

Legend:
[1] = wn = mass fraction of the nth substance listed; details: Wilhelmy Plate method
[2] = cn = amount concentration of the nth substance listed, in mol/dm3; details: 101.3 kPa, Liquid; for viscosity: Capillary tube (Ostwald / Ubbelohde) method
[3] = Wilhelmy Plate method

C1CNCCN1 [piperazine] + O
Details | mass density, [2] [kg/m3] | surface tension liquid-gas, [1] [mN/m] | viscosity, [2] [mPa·s]
293.15 K, c1 = 0.623 | 1000.46 ± 2.5 | – | 1.26 ± 0.04
293.15 K, c1 = 1.006 | 1002.49 ± 2.5 | – | 1.52 ± 0.05
293.15 K, c1 = 1.49 | 1005.4 ± 2.4 | – | 1.87 ± 0.06
293.15 K, w1 = 0.043 | – | 71.7 ± 2.1 | –
293.15 K, w1 = 0.086 | – | 70.1 ± 2 | –
293.15 K, w1 = 0.129 | – | 69.3 ± 1.9 | –
298.15 K, c1 = 0.623 | 999.37 ± 2.5 | – | 1.11 ± 0.04
298.15 K, c1 = 1.006 | 1001.3 ± 2.5 | – | 1.31 ± 0.04
298.15 K, c1 = 1.49 | 1004.11 ± 2.4 | – | 1.62 ± 0.05
298.15 K, c1 = 1.686 | 1005.39 ± 2.4 | – | 1.8 ± 0.06
303.15 K, c1 = 0.623 | 997.94 ± 2.5 | – | 0.98 ± 0.03
303.15 K, c1 = 1.006 | 999.79 ± 2.5 | – | 1.15 ± 0.04
303.15 K, c1 = 1.49 | 1002.47 ± 2.4 | – | 1.4 ± 0.04
303.15 K, c1 = 1.686 | 1003.66 ± 2.4 | – | 1.56 ± 0.05
313.15 K, c1 = 0.623 | 994.25 ± 2.5 | – | 0.79 ± 0.03
313.15 K, c1 = 1.006 | 996.03 ± 2.5 | – | 0.92 ± 0.03
313.15 K, c1 = 1.49 | 998.49 ± 2.4 | – | 1.09 ± 0.03
313.15 K, c1 = 1.686 | 999.49 ± 2.4 | – | 1.2 ± 0.04
313.15 K, w1 = 0.043 | – | 68.5 ± 2 | –
313.15 K, w1 = 0.086 | – | 67.8 ± 1.9 | –
313.15 K, w1 = 0.129 | – | 67.6 ± 1.9 | –
323.15 K, c1 = 0.623 | 989.76 ± 2.5 | – | 0.65 ± 0.02
323.15 K, c1 = 1.006 | 991.53 ± 2.5 | – | 0.75 ± 0.02
323.15 K, c1 = 1.49 | 993.86 ± 2.4 | – | 0.88 ± 0.03
323.15 K, c1 = 1.686 | 994.74 ± 2.4 | – | 0.96 ± 0.03

O [water]
[3]
Details | surface tension liquid-gas [mN/m]
293.15 K | 72.7 ± 2.2
313.15 K | 69.8 ± 2.1

O [water] + C1CNCCN1
[1], w2 = 0
Details | surface tension liquid-gas [mN/m]
293.15 K | 72.7 ± 2.2
313.15 K | 69.8 ± 2.1
